Reference: patent US20240352055A1, “PROCESS FOR THE MANUFACTURE OF (2S,3S,4S,5R,6S)-3,4,5-TRIHYDROXY-6-(((4AR,10AR)-7-HYDROXY-1-PROPYL-1,2,3,4,4A,5,10,10A-OCTAHYDROBENZO[G]QUINOLIN-6-YL)OXY)TETRAHYDRO-2H-PYRAN-2-CARBOXYLIC ACID” (H. LUNDBECK A/S, priority 2019, published 2024)
Where two headings read alike, the source gives them in different places.

How the values were obtained:
human 5-HT2B receptor = human 5-HT2B receptor (Homo sapiens (Human), UniProt P41595); experiment: 5-HT2B agonist activity assay (IP1 production, HTRF); format: cell-based; settings: for 5-HT2B agonist effect at single concentration: percent of control response to 1 μM 5-HT; for EC50: CHO cells expressing human 5-HT2B, IP1 production
Chain of human 5-HT2B receptor (P41595 whole entry): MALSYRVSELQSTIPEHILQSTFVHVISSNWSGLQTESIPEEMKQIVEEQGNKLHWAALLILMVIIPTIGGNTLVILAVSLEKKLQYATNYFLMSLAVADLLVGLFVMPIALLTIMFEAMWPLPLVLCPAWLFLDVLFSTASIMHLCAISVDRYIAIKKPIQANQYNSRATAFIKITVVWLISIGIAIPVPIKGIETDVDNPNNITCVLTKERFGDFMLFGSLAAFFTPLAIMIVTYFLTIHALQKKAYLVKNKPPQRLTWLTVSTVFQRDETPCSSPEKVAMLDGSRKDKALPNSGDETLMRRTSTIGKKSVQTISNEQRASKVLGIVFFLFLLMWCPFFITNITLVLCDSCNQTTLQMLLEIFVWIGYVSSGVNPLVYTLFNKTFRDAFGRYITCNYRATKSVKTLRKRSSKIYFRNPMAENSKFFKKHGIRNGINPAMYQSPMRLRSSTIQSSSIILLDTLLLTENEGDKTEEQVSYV
Description: Evaluation of the agonist activity of compounds (I), (Ia)(Ib), (Ic), and (Id) at the human 5-HT2B receptor was performed by Eurofins/Cerep (France) measuring the compound effects on inositol monophosphate (IP1) production using the HTRF detection method. Briefly, the human 5-HT2B receptor was expressed in transfected CHO cells. The cells were suspended in a buffer containing 10 mM Hepes/NaOH (pH 7.4), 4.2 mM KCl, 146 mM NaCl, 1 mM CaCl2, 0.5 mM MgCl2, 5.5 mM glucose and 50 mM LiCl, then distributed in microplates at a density of 4100 cells/well and incubated for 30 minutes at 37° C. in the presence of buffer (basal control), test compound or reference agonist. For stimulated control measurement, separate assay wells contained 1 μM 5-HT. Following incubation, the cells were lysed and the fluorescence acceptor (fluorophen D2-labeled IP1) and fluorescence donor (anti-IP1 antibody labeled with europium cryptate) were added. After 60 minutes at room temperature, the fluorescence transfer was measured at lambda (Ex) 337 nm and lambda(Em) 620 and 665 nm using a microplate reader (Rubystar, BMG). The IP1 concentration was determined by dividing the signal measured at 665 nm by that measured at 620 nm (ratio). The results were expressed as a percent of the control response to 1 μM 5-HT. The standard reference agonist was 5-HT, which was tested in each experiment at several concentrations to generate a concentration-response curve from which its EC50 value is calculated as described above for dopamine functional assays.

[1] = PK experiments in rats: plasma compound (I) after oral dosing of prodrugs; format: in vivo, Han Wistar rats; settings: Wistar rats, oral dosing of the prodrug
Description: Plasma was placed on water-ice following collection. Final storage at approximately −70° C.
Instrumentation Used for Analysis of Compound (I) from Dosing Compound (Ia):
Mobile phase B: Acetonitrile. […] Flow rate 0.5 mL/min.
The rats had unrestricted access to the diet.
Instrumentation Used for Analysis of Compound (I) from Dosing of Compound (Ib):
Mobile phase B: Acetonitrile+0.2% formic acid. […] Flow rate 0.3 mL/min.
Dosing and blood sampling for compound (Ic): Han Wistar rats were supplied by Envigo, UK. […] The rats received a standard laboratory diet Teklad 2014C. The rats had unrestricted access to the diet. […] Rats were given 494 μg/kg (Ic).

human D1 receptor = human D1 receptor (Homo sapiens (Human), UniProt P21728); experiment: Dopamine D1 receptor agonism, HTRF cAMP assay; format: cell-based
Chain of human D1 receptor (P21728 whole entry): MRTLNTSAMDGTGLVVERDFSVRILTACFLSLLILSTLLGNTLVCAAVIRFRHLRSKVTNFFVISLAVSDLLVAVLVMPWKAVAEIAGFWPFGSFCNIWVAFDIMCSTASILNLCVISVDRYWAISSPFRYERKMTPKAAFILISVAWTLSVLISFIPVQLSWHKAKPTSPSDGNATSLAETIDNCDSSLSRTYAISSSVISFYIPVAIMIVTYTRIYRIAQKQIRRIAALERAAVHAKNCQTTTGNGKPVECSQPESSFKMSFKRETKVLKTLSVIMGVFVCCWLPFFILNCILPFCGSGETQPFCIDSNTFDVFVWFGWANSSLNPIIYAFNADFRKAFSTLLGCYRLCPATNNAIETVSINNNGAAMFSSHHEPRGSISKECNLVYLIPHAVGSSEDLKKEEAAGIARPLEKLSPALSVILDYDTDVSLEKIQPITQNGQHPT
Description: Dopamine D1 receptor agonism was measured using a HTRF cAMP from CisBio using the protocol developed by HD Biosciences (China). Briefly, the assay is a homogeneous time resolved-fluorescence resonance energy transfer (HTRF) assay that measures production of cAMP by cells in a competitive immunoassay between native cAMP produced by cells and cAMP-labeled with XL-665. A cryptate-labeled anti-cAMP antibody visualizes the tracer. The assay was performed in accordance with instructions from manufacturer.
Test compounds were added to wells of microplates (384 format). HEK-293 cells expressing the human D1 receptor were plated at 1000 cells/well and incubated 30 minutes at room temperature. cAMP-d2 tracer was added to wells and followed by addition of Anti-cAMP antibody-cryptate preparation and incubated for 1 hour at room temperature in dark. HTRF cAMP was measured by excitation of the donor with 337 nm laser (the “TRF light unit”) and subsequent (delay time 100 microseconds) measurement of cryptate and d2 emission at 615 nm and 665 nm over a time window of 200 microseconds with a 2000 microseconds time window between repeats/100 flashes). HTRF measurements were performed on an Envision microplate reader (PerkinElmer). The HTRF signal was calculated as the emission-ratio at 665 nm over 615 nm. The HTRF ratio readout for test compounds was normalized to […] and 100% stimulation using control wells with DMSO-solvent or 30 μM dopamine. Test compound potency (EC50) was estimated by nonlinear regression using the sigmoidal dose-response (variable slope) using Xlfit 4 (IDBS, Guildford, Surrey, UK, model 205).
y=(A+((B−A)/(1+((C/x)^D))))
(§1) where y is the normalized HTRF ratio measurement for a given concentration of test compound, x is the concentration of test compound, A is the estimated efficacy at infinite compound dilution, and B is the maximal efficacy. C is the EC50 value and D is the Hill slope coefficient. EC50 estimates were obtained from an independent experiment and the logarithmic average was calculated.

human D2 receptor = human D2 receptor (Homo sapiens (Human), UniProt P14416); experiment: Dopamine D2 receptor agonism, calcium mobilization assay; format: cell-based; settings: HEK293/G15 cells expressing human D2 receptor; calcium flux
Chain of human D2 receptor (P14416 whole entry): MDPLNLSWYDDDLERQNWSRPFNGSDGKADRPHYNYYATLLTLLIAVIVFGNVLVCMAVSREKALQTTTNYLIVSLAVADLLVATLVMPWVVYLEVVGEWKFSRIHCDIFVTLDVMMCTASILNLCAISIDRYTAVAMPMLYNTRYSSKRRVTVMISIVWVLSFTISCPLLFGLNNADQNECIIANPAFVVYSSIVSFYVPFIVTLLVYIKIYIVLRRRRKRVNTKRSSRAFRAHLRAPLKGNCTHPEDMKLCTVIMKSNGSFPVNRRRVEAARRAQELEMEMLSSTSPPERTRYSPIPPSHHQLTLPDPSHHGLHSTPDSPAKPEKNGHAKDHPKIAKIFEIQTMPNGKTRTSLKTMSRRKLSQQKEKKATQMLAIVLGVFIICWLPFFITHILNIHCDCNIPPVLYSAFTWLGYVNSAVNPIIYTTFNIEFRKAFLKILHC
Description: Dopamine D2 receptor agonism was measured using a calcium mobilization assay protocol developed by HD Biosciences (China). Briefly, HEK293/G15 cells expressing human D2 receptor were plated at a density of 15000 cells/well in clear-bottomed, Matrigel-coated 384-well plates and grown for 24 hours at 37° C. in the presence of 5% CO2. The cells were incubated with calcium-sensitive fluorescent dye, Fluo8, for 60-90 minutes at 37° C. in the dark. Test compounds were prepared at 3-fold concentrated solution in 1×HBSS buffer with Ca^2. and Mg^2+. Calcium Flux signal was immediately recorded after compounds were added from compound plate to cell plate at FLIPR (Molecular Devices). The fluorescence data were normalized to yield responses for no stimulation (buffer) and full stimulation (1 μM of dopamine) of 0% and 100%. stimulation, respectively. Test compound potency (EC50) was estimated by nonlinear regression using the sigmoidal dose-response (variable slope) using Xlfit 4 (IDBS, Guildford, Surrey, UK, model 205).
as §1, with “normalized” for “normalized HTRF”, “from” for “from an”

[2] = Liu et al., Bioorganic Med. Chem. (2008); cited from earlier work
locomotor activity = experiment: Rat locomotor activity (hyperactivity) assay, open field; format: in vivo, male CD rats; settings: for Onset of increased locomotor activity post-administration / End of locomotor effect, time post administration: (Id) 10 to 300 μg/kg p.o.; for End of locomotor effect, time post administration: recording to the 415-minute time point
Description: In total, 206 male CD rats (Charles River, Germany) weighing 200-250 grams (165-190 grams upon arrival) were used in the study. Animals were housed at a standard temperature (22±1° C.) and in a light-controlled environment (lights on from 7 am to […]) with ad libitum access to food and water. The experiment described below was performed in accordance with the standard operating procedures of Charles River Discovery Research Services Finland Ltd. and in accordance with the national Animal Experiment Board of Finland (Eläinkoelautakunta, ELLA) authority on animal testing.
The test device is a square Plexiglass-arena (measuring 40×40×40 cm), in which the movement paths of the rats are recorded by an activity monitor (Med. Associates Inc.). Before the test period is initiated, rats are habituated to their test cage for 60 minutes. Upon completion of habituation, animals were treated with either compound or vehicle and placed back into the open field apparatus. The main test parameter measured is ambulatory distance (recorded in 5 minute segments). Overall time of measurement after receiving initial treatment was 360 minutes. Total follow up period in the study was 420 minutes, including 60 minutes of habituation.
Apomorphine and pramipexole were also concomitantly tested in this assay as comparators (i.e. known standard-of-care (SoC) in the Parkinson's Disease field), and plasma concentration was analyzed for apomorphine.

[3] = Conversion of compound (Id) to compound (I) in rat hepatocytes; format: in vitro ADME; settings: 1 μg/mL, 37° C., up to 60 minutes
Description: (§2) The cell concentration at incubation was 1×10^6 viable cells/mL. The incubations were performed in glass tubes at 37° C. with a total incubation volume of 3.5 mL and with duplicate incubations for each test item. The 3.5 mL of hepatocyte suspension was equilibrated for 10 minutes in a water bath set to 37° C. where after the incubations were initiated by adding 3.5 μL of a stock solution of the test item in DMSO (Dimethyl sulfoxide) and gently inverting the tubes. The final solvent concentration in the incubations was 0.1% DMSO. Samples of 600 μL were withdrawn from the incubations at the pre-determined time points of 0.25, 5, 15, 30 and 60 minutes after ensuring homogeneity of hepatocyte suspensions. The withdrawn volume was added to 1 mL Nunc cryotubes on wet ice containing 60 μL of ice-cold ascorbic acid (100 mg/mL) and 30 μL of ice cold 100 mM saccharic acid 1.4-lactone in 0.5 M citric acid. The tubes were mixed and 35 μL of a solution of ice cold 20% formic acid was added. The tubes were mixed thoroughly and stored at −80° C. awaiting analysis.

[4] = Conversion of compound (Id) to compound (I) in human hepatocytes; format: in vitro ADME; settings: 1 μg/mL, 37° C., up to 60 minutes
Description: as §2

[5] = Conversion of compound (Id) to compound (I) in fresh rat blood; format: in vitro ADME; settings: 1 μg/mL, 37° C., up to 60 minutes
Description: (§3) Conversion of (Id) in human blood (average of 3 donors) and rat blood (average of […]) to (1) was shown in fresh blood at 37° C. spiked with 1 μg/mL of (Id). (1) was measured at 0, 5, 15, 30 and 60 minutes in isolated plasma. Analysis method and Instrumentation as described in Examples 9 and 10 below in the section “Instrumentation used for analysis of compound (I) from dosing of compounds (Ic) and (d).”

[6] = Conversion of compound (Id) to compound (I) in fresh human blood; format: in vitro ADME; settings: 1 μg/mL, 37° C., up to 60 minutes
Description: as §3

[7] = In vivo conversion of compound (Id) to compound (I) after oral dosing in minipigs
[8] = in man after oral dosing; cited from earlier work
[9] = HEK-293 cells expressing human D1 receptor, cAMP HTRF, read-out: D1 EC50
[10] = apomorphine 3 mg/kg s.c., pramipexole 0.3 mg/kg s.c.

Row | Structure (SMILES) | Plasma profile of compound (I) after oral dosing (in words) [1] | EC50 (human D1 receptor; [9]) [nM] | EC50 (human D2 receptor) [nM] | EC50 (human 5-HT2B receptor) [nM] | Onset of increased locomotor activity post-administration (locomotor activity; [10]) | further results
1 | CCCN1CCC[C@@H]2Cc3c(ccc(OC(=O)C(C)(C)C)c3OC(=O)C(C)(C)C)C[C@H]21 [(Ic)] | extremely low | – | – | – | – | 5-HT2B agonist effect at single concentration (human 5-HT2B receptor; @10 μM): −5%@10 μM
2 | CCCN1CCC[C@@H]2Cc3c(ccc(O)c3O)C[C@H]21 [Compound (I), (4aR,10aR)-1-Propyl-1,2,3,4,4a,5,10,10a-octahydro-benzo[g]quinoline-6,7-diol] | – | 3.3 | 1.3 | 2900 | – | Oral bioavailability (in words) [2]: low oral bioavailability
3 | CCCN1CCC[C@@H]2CC3=C(CCCC3=O)C[C@H]21 [Compound (Ia)] | early and high peak concentrations of compound (I) | > 1000 | > 1000 | > 6000 | – | 5-HT2B agonist effect at single concentration (human 5-HT2B receptor; @30 μM): 58%
4 | CCCN1CCC[C@@H]2Cc3c(ccc4c3OCO4)C[C@H]21 [Compound (Ib)] | early and high peak concentrations of compound (I) | – | 46 | 3.8 | – | EC50 (human D1 receptor): > 1000 nM; 5-HT2B receptor agonism (in words) (human 5-HT2B receptor): agonist of the 5-HT2B receptor
5 | CCCN1CCC[C@@H]2Cc3c(ccc(O)c3O[C@@H]3O[C@H](C(=O)O)[C@@H](O)[C@H](O)[C@H]3O)C[C@H]21 [Compound (Id), (2S,3S,4S,5R,6S)-3,4,5-trihydroxy-6-(((4aR,10aR)-7-hydroxy-1-propyl-1,2,3,4,4a,5,10,10a-octahydrobenzo[g]quinolin-6-yl)oxy)tetrahydro-2H-pyran-2-carboxylic acid] | slower absorption rate avoiding rapid peak concentrations accompanied by a sustained exposure of compound (I) in plasma | 2700 | 1100 | – | ~2 h | End of locomotor effect, time post administration (locomotor activity; apomorphine 3 mg/kg s.c.): lasting until the end of recording; Total distance travelled (locomotor activity; versus vehicle, (Id) 10-300 μg/kg p.o., apomorphine 3 mg/kg s.c., pramipexole 0.3 mg/kg s.c.): significantly increased activity; Conversion to compound (I) [3]: time dependent conversion; Conversion to compound (I) [4]: time dependent conversion; Conversion to compound (I) [5]: time dependent conversion; Conversion to compound (I) [6]: time dependent conversion; In vivo conversion to compound (I) [7]: observed
6 | CCCN[C@H]1CCc2nc(N)sc2C1 [Pramipexole, pramipexole] | – | – | – | – | about 1 hours | Locomotor effect gone, time after its appearance (locomotor activity; pramipexole 0.3 mg/kg s.c., at the 270-minute time point): 2.5 h
7 | CCCc1cc2c(s1)CN[C@@H]1CCc3cc(OC(C)=O)c(OC(C)=O)cc3[C@@H]21 [adrogolide] | – | – | – | – | – | Oral bioavailability [8]: ~4%
8 | CN1CCc2cccc3c2[C@H]1Cc1ccc(O)c(O)c1-3 [apomorphine] | – | – | – | – | immediate | End of locomotor effect, time post administration (locomotor activity; apomorphine 3 mg/kg s.c.): 1.5 h
